For experiment [1], the system named is MGC-803. Description: Antiproliferative activity against human MGC-803 cells assessed as inhibition of cell proliferation measured after 48 hrs by CCK8 assay. Format: functional, cell-based. To be noted: MGC-803, 48 h. For orientation: Tetrazolium dyes change colour on reduction, which living cells bring about.
Experiment [2] relates to KYSE-30. The experiment in a line: Antiproliferative activity against human KYSE-30 cells assessed as inhibition of cell proliferation measured after 48 hrs by CCK8 assay. In kind it is functional, cell-based. To be noted: KYSE-30, 48 h.
In experiment [3] the test system is A549. The experiment in a line: Antiproliferative activity against human A549 cells assessed as inhibition of cell proliferation measured after 48 hrs by CCK8 assay. In kind it is functional, cell-based. To be noted: A549, 48 h.
Experiment [4] relates to KYSE-450. The experiment in a line: Antiproliferative activity against human KYSE-450 cells assessed reduced cell viability measured after 20 to 60 hrs. Format: functional, cell-based. To be noted: dose 0.313-2.5 µM, time 20-60 hrs.
Experiment [5] concerns the target Tubulin. The experiment in a line: Inhibition of tubulin polymerization in human KYSE-450 cells measured by EBI competition assay relative to colchicine. Format: cell-based.
The test system of experiment [6] is KYSE-450. Description: Induction of apoptosis in human KYSE-450 cells assessed by concentrated nucleus at 0.313 to 2.5 uM measured after 48 hrs by DAPI staining based microscopic method. Format: functional, cell-based. To be noted: dose 0.313-2.5 µM.
In experiment [7] the target is Tubulin (Homo sapiens) (UniProt P68371+Q9H4B7+P0DPH7+P68366+Q13509+Q71U36+P04350+Q3ZCM7+P07437+P68363+Q9BQE3+Q6PEY2+Q13885+Q9BVA1+Q9BUF5). The experiment in a line: Inhibition of tubulin polymerization in human KYSE-450 cells assessed by disorganised spindle at 1.25 to 2.5 uM measured after 48 hrs by immunoflourescence assay relative to colchicine. Format: cell-based. To be noted: dose 1.25-2.5 µM.

The test system of experiment [8] is KYSE-450. Description: Antiproliferative activity against human KYSE-450 cells assessed reduced cell viability at 1 to 80 uM measured after 48 hrs. In kind it is functional, cell-based. To be noted: dose 1-80 µM.
Experiment [9] relates to KYSE-450. Description: Antiproliferative activity against human KYSE-450 cells assessed as inhibition of colony formation at 0.188 uM measured after 7 days by colony formation assay. Format: functional, cell-based. To be noted: time 7.0 day.
Experiment [10] concerns KYSE-450. Description: Antiproliferative activity against human KYSE-450 cells assessed reduced cell viability at 0.313 to 2.5 uM. In kind it is functional, cell-based. To be noted: dose 0.313-2.5 µM, time 20-40 hrs, TDE = time-dependent effect.
Experiment [11] has as its system KYSE-510. The experiment in a line: Antiproliferative activity against human KYSE-510 cells assessed as inhibition of cell proliferation measured after 48 hrs by CCK8 assay. In kind it is functional, cell-based. To be noted: KYSE-510, 48 h.
For experiment [12], the system named is KYSE-450. Description: Induction of apoptosis in human KYSE-450 cells assessed by smaller nucleus at 0.313 to 2.5 uM measured after 48 hrs by DAPI staining based microscopic method. In kind it is functional, cell-based. To be noted: dose 0.313-2.5 µM.
Experiment [13] relates to ECa-109 cell line. Description: Antiproliferative activity against human Eca-109 cells assessed as inhibition of cell proliferation measured after 48 hrs by CCK8 assay. In kind it is functional, cell-based. To be noted: ECa-109, 48 h.
Experiment [14] relates to KYSE-450. The experiment in a line: Antiproliferative activity against human KYSE-450 cells assessed as inhibition of cell proliferation measured after 48 hrs by CCK8 assay. In kind it is functional, cell-based. To be noted: KYSE-450, 48 h.
For experiment [15], the system named is KYSE-450. The experiment in a line: Induction of apoptosis in human KYSE-450 cells assessed by round cells at 0.313 to 2.5 uM measured after 48 hrs by DAPI staining based microscopic method. To be noted: dose 0.313-2.5 µM. In kind it is functional, cell-based.

This note sets out measurements from ChEMBL document CHEMBL4811276, “WITHDRAWN: Discovery of indoline derivatives as anticancer agents via inhibition of tubulin polymerization” (Bioorg Med Chem Lett, 2021).

Calls of active or inactive are those of the source. The rule behind the calls is not given here. Some results are limits rather than exact numbers.

For orientation: IC50 means the concentration that gives 50% inhibition. Consider `COc1cc(C(=O)N2CCc3cc([N+](=O)[O-])ccc32)cc(OC)c1OC`, for which the IC50 in [1] came out at 8.32 µM; in [2], 6.55 µM; in [3], 17.7 µM.
On to `O=C(Cc1ccc(Br)cc1)N1CCc2cc(Br)ccc21`, for which the IC50 was 35.8 µM in experiment [1], 20.7 µM in experiment [2] and above 40 µM in experiment [3].
In the case of `Cc1ccc(CC(=O)N2CCc3cc(Br)ccc32)cc1`, the IC50 in [1] was 38.2 µM; in experiment [2] it was 33.2 µM; in experiment [3], above 40 µM.
`O=C(Cc1ccc(F)cc1)N1CCc2cc(Br)ccc21`: the IC50 in experiment [1], in [2] and in experiment [3] was above 40 µM throughout.
For the molecule `COc1cc(C(=O)N2CCCc3ccccc32)cc(OC)c1OC`, the IC50 in [1] was found to be 4.41 µM; in experiment [2], 6.72 µM; in experiment [3] it was 23.7 µM.
The matching figures for `Cc1ccc(C(=O)N2CCc3cc(Br)ccc32)cc1`: above 40 µM, above 40 µM and 38.9 µM.
`COc1cc(CC(=O)N2CCc3cc(Br)ccc32)cc(OC)c1OC`: the values for the IC50 in experiment [1], in experiment [2] and in experiment [3] were 22.4 µM, 20.2 µM and 24.8 µM, respectively.
In the case of `O=C(c1ccc(F)cc1)N1CCc2cc(Br)ccc21`, the half-maximal inhibitory concentration (IC50) in [1] was determined as 24.1 µM; in experiment [2], 22.1 µM; in experiment [3], 18.9 µM.
Turning to `COc1cc2c(c(OC)c1OC)-c1ccc(OC)c(=O)cc1[C@@H](NC(C)=O)CC2` [COLCHICINE], the IC50 in experiment [1] is 1.07 µM; in [2] it was 0.28 µM; in [3], 0.19 µM.
For `COc1cc(C(=O)N2CCc3cc(Br)ccc32)cc(OC)c1OC`, the Activity entry in experiment [4] is “Dose-Dependent Effect”; in [10], “Tde”. The IC50 in experiment [5] worked out at 3.4 µM; in experiment [1] it was 1.84 µM; in experiment [11], 2.08 µM; in [2], 1.61 µM; in experiment [13] it was 2.24 µM; in experiment [3] it was 6.82 µM. Further, the IC50 in experiment [14] was determined as 1.49 µM. The result in [6], in experiment [8], in [9], in experiment [12] and in experiment [15] was Active. Moreover, the inhibition entry in [7] was “Active”.
Regarding `COc1cc(C(=O)N2CCc3ccccc32)cc(OC)c1OC`, the IC50 in [1] was 7.57 µM; in experiment [2] it was 7.72 µM; in experiment [3], 22 µM.
For the molecule `O=C(c1ccccc1)N1CCc2cc(Br)ccc21`, the IC50 in [1] was 28.5 µM; in experiment [2] it was 20.3 µM; in experiment [3], above 40 µM.
In the case of `O=C(c1ccc(Br)cc1)N1CCc2cc(Br)ccc21`, the results for the IC50 in experiment [1], in experiment [2] and in experiment [3] were 33.6 µM, 26.8 µM and above 40 µM, respectively.
The matching figures for `COc1ccc(C(=O)N2CCc3cc(Br)ccc32)cc1`: 18.8 µM, 18.9 µM and 21.1 µM.
On to `O=C(Cc1ccccc1)N1CCc2cc(Br)ccc21`, for which the IC50 is 82.8 µM in [1], above 40 µM in experiment [2] and 28.5 µM in experiment [3].
`COc1ccc(CC(=O)N2CCc3cc(Br)ccc32)cc1`: the 50% inhibitory concentration (IC50) in experiment [1] was 28.7 µM; in experiment [2], above 40 µM; in [3] it was 24.8 µM.
On to `COc1cc(C(=O)N2CCCCc3ccccc32)cc(OC)c1OC`, for which the results for the IC50 in experiment [1], in [2] and in [3] were 4.3 µM, 16.6 µM and 21.7 µM, respectively.
